The test system of one experiment is serum HDL-C. Description: Serum HDL-C in wild-type mice after 7 days of treatment. The experiment is classed as in vivo, wild-type (WT; C57BL/6) mice. The following applies: for HDL-C relative to controls (methylcellulose): gavage once daily 7 days, 100 mg/kg, gemfibrozil 20 mg/kg, troglitazone 6 and 60 mg/Kg, Dunnett's procedure. The procedure: In all cases methylcellulose was used as a vehicle control. These chemicals were administered, as a suspension in 1% methylcellulose (vehicle) by gavage using a 20 G—1½-inch feeding needle. The animals were treated in groups of three and for each treated group two mice were treated simultaneously with methylcellulose (vehicle). Each treatment was given once daily in the morning for seven days. […] The volume of vehicle used to suspend the treatment drugs and the dose of vehicle for control group was 7 ml/kg. Doses were selected based on the results obtained from previous studies in rats except for troglitazone and hyperforin, for which doses were weight-adjusted using estimates of average daily human doses as reference. After the completion of the treatment (i.e. on day 8), blood samples were collected from the tail of the animals for serum HDL-C and ApoA1 determination. Blood samples were allowed to clot for 2 hours, centrifuged at 14,000 rpm for 20 minutes, and serum was collected. The serum samples were then stored at −20° C. for up to 24 hours before quantitative determination of HDL-C and ApoA1. HDL-C was determined quantitatively in the serum using Liquid Direct HDL kits. The kit contained reagent 1, reagent 2, and HDL calibrator. The assay consisted of two steps. […] The peroxide byproduct of this reaction is rendered non-colored via catalase reduction. […] In this second step, the catalase is inhibited, the remaining HDL cholesterol specifically reacts with cholesterol esterase and cholesterol oxidase, and in the presence of peroxidase the peroxide byproduct reacts with 4-aminoantipyrine and HDAOS to form a colored […] dye. Both these reactions were allowed to occur at 37° C. […] Each sample was analyzed twice, and the average of both readings was used. Statistical treatments for HDL-C and apoA1 in mice were identical. For each of these variables, three basic analyses were performed, one for WT mice, one for PXR-KOs, and one for the two groups combined. Statistical analysis was performed in SAS (SAS Release 8, 1999, SAS Institute Inc., Cary, N.C.). In all cases the primary method of comparing treatments was ANOVA. Prior to performing this analysis, both variables were normalized by the geometric mean of their associated controls. Normality and homoscedasticity (constancy of variance across groups) were evaluated, with an appropriate data transformation (logarithmic) applied if necessary. These properties were checked before (to evaluate the need for transformation) and after transformation (to confirm the adequacy of the transformation) using normal probability plots and Levene's test for equality of variances (Snedecor et al., Statistical Methods, 8th Edition, Iowa State University Press, pp. 59-62 and 252-253, 1989). […]

Experiment [1] has as its system serum ApoA1. The experiment is described as follows: Serum apoA1 in wild-type mice after 7 days of treatment (immuno-turbidimetric assay). The experiment is classed as in vivo, wild-type (WT; C57BL/6) mice. The following applies: for apoA1 relative to controls (methylcellulose): gavage once daily 7 days, 100 mg/kg, gemfibrozil 20 mg/Kg, troglitazone 6 and 60 mg/Kg, Dunnett's procedure. Here is the method:
(§1) PXR-KO mice were treated with either rifampicin, gemfibrozil, or CDD 3540. In all cases methylcellulose was used as a vehicle control. These chemicals were administered, as a suspension in 1% methylcellulose (vehicle) by gavage using a 20 G—1½-inch feeding needle. The animals were treated in groups of three and for each treated group two mice were treated simultaneously with methylcellulose (vehicle). Each treatment was given once daily in the morning for seven days. The doses were 100 mg/kg for CTZ, rifampicin, CDD 3540, phenobarbital and TCPOBOP, 6 mg/kg and 60 mg/Kg for troglitazone and 0.175 mg/Kg and 1.75 mg/Kg for hyperforin, and for gemfibrozil 20 mg/Kg and 100 mg/Kg. The volume of vehicle used to suspend the treatment drugs and the dose of vehicle for control group was 7 ml/kg.
(§2) After the completion of the treatment (i.e. on day 8), blood samples were collected from the tail of the animals for serum HDL-C and ApoA1 determination. Blood samples were allowed to clot for 2 hours, centrifuged at 14,000 rpm for 20 minutes, and serum was collected. The serum samples were then stored at −20° C. for up to 24 hours before quantitative determination of HDL-C and ApoA1.
An immuno-turbidimetric assay was developed for quantitative determination of ApoA1 in mouse serum. Commercially available stock solution of purified mouse ApoA1 (79 mg/dl) was used to construct a standard curve. A potassium phosphate buffer solution was prepared by diluting 1 ml of monobasic 1.0 M potassium phosphate buffer to 10 ml with distilled water, and the pH of the solution was adjusted to 7.2 using 0.1 N NaOH. […] A dilution of 1:4000 of the stock concentration was used per the manufacturer's recommendation. The standard curve was prepared with 0, 39.5, 79, and 158 mg/dl of mouse apoA1. 1 μl of mouse plasma was mixed with 3 μl of distilled water for quantitation of apoA1. 500 μl of buffer solution was added to 4 μl of total sample volume prepared as described. After 5 minutes, 100 μl of antibody solution was added. The mixture was allowed to incubate at 37° C. for 3 minutes. Absorbance was measured at 580 nm using a Beckmann DU640 Spectrophotometer. Each sample or standard was analyzed twice, and the average of both readings was used. Serum ApoA1 concentrations from control mice were also compared with the normal ApoA1 levels in mice, obtained from the literature, to affirm the validity of the assay procedure.
Statistical treatments for HDL-C and apoA1 in mice were identical. For each of these variables, three basic analyses were performed, one for WT mice, one for PXR-KOs, and one for the two groups combined. Statistical analysis was performed in SAS (SAS Release 8, 1999, SAS Institute Inc., Cary, N.C.). In all cases the primary method of comparing treatments was ANOVA. Prior to performing this analysis, both variables were normalized by the geometric mean of their associated controls. Normality and homoscedasticity (constancy of variance across groups) were evaluated, with an appropriate data transformation (logarithmic) applied if necessary. These properties were checked before (to evaluate the need for transformation) and after transformation (to confirm the adequacy of the transformation) using normal probability plots and Levene's test for equality of variances (Snedecor et al., Statistical Methods, 8th Edition, Iowa State University Press, pp. 59-62 and 252-253, 1989). […]

In experiment [2] the test system is serum ApoA1. Description: Serum apoA1 in PXR-KO mice after 7 days of treatment. The experiment is classed as in vivo. The note with it: for apoA1 relative to control: gavage once daily 7 days, gemfibrozil 20 mg/kg, others 100 mg/kg. The procedure:
as §1, §2
An immuno-turbidimetric assay was developed for quantitative determination of ApoA1 in mouse serum. Commercially available stock solution of purified mouse ApoA1 (79 mg/dl) was used to construct a standard curve. A potassium phosphate buffer solution was prepared by diluting 1 ml of monobasic 1.0 M potassium phosphate buffer to 10 ml with distilled water, and the pH of the solution was adjusted to 7.2 using 0.1 N NaOH. […] 1 μl of mouse plasma was mixed with 3 μl of distilled water for quantitation of apoA1. […] Absorbance was measured at 580 nm using a Beckmann DU640 Spectrophotometer. Each sample or standard was analyzed twice, and the average of both readings was used. […]
Statistical treatments for HDL-C and apoA1 in mice were identical. […] Normality and homoscedasticity (constancy of variance across groups) were evaluated, with an appropriate data transformation (logarithmic) applied if necessary. […]

Another experiment concerns CYP3A. The experiment is described as follows: CYP3A activity in rats (hepatic microsomal EDM activity, ethosuximide clearance). The experiment is classed as in vivo, rat. The procedure:
(§3) Treatments were administered by gavage once daily in the morning for eight (8) days.
Ethosuximide was prepared as a 3.5% (w/v) solution dissolved in normal saline. Ethosuximide was administered in a dose of 35 mg/kg via tail vein injection 24 hours following the eighth pretreatment dose.
(§4) Whole blood was collected by cardiac puncture under CO2 anesthesia 8 hours following ethosuximide infusion. Animals were then sacrificed using CO2 and cervical dislocation. Livers were excised and used for analysis of erythromycin demethylase activity (as described in the Slama et al. reference) and hepatic apoA1 mRNA. Plasma was separated from whole blood anticoagulated with 5 mM EDTA at room temperature using a bench top centrifuge (5000 rpm) for 5 minutes. Plasma was stored unpreserved at −20° C. for up to 5 days, and subsequently analyzed for ethosuximide and for HDL-C. Concentrations of ethosuximide and HDL-C were measured in plasma by fluorescence polarization immunoassay (fpia) using a TDx analyzer (Abbott Laboratories, Irving, Tex.) and commercially available reagents (Abbott Laboratories, Abbott Park, Ill.).

Experiment [3] concerns hepatic apoA1 mRNA. Description: Hepatic apoA1 mRNA in rats after 8 days of treatment. The experiment is classed as in vivo, rat. Here is the method: as §4, with “Treatments were administered by gavage once daily in the morning for eight (8) days. Whole” for “Whole”, “-20°” for “−20°”, “Ill.). […] Hepatic apoA1 mRNA was measured by Northern Blot hybridization to total hepatic RNA with oligonucleotides for apoprotein A1 and elongation factor-1α (EF-1α). The procedure was similar to that described in the Slama et al. reference for hepatic CYP3A mRNA. […]” for “Ill.).”

Experiment [4] relates to hepatic apoA1 mRNA. The experiment is described as follows: Time course of hepatic apoA1 mRNA in rats (Northern blot). The experiment is classed as in vivo, rat. The following applies: 50 mg/Kg by gavage once daily, beginning after treatment day 2 and constant thereafter, p<0.05 vs vehicle controls. Here is the method: Hepatic apoA1 mRNA was measured by Northern Blot hybridization to total hepatic RNA with oligonucleotides for apoprotein A1 and elongation factor-1α (EF-1α). The procedure was similar to that described in the Slama et al. reference for hepatic CYP3A mRNA. The following oligonucleotide sequence used for rat apoA1 mRNA was based on the nucleotide sequence for rat apoA1 described by Haddad et al. (“Linkage, evolution and expression of the rat apolipoprotein A-1, C-III, and A-IV genes,” J Biol Chem 1986; 261: 13268-13277): 3′ CTACGTCAGTTCCTGTCGCCGTCTCTGATACACAGGGTCAAACTTAGGAGGTGAAACCCG 5′.
[…] were dosed with CDD 3540 (50 mg/Kg) by gavage once daily for 8 days, and three rats were treated with methylcellulose (vehicle controls). Groups of three treated rats were sacrificed at 6 and 12 h after the first dose, 12 and 24 h after the second dose, and at 12 hours after doses 4-8, respectively. Hepatic apoA1 mRNA was quantitated by northern blot analysis as described above.
Temporal differences in hepatic apoA1 mRNA in rats were evaluated by a simple Analysis of Variance (ANOVA) and a Tukey's post-hoc test.

The next experiment deals with HDL-C. The experiment is described as follows: HDL-C in rats after 8 days of treatment. The experiment is classed as in vivo, rat. The procedure: as §3, §4

We go through 4 molecules from patent US20060211632A1, “PXR agonists for cardiovascular disease” (priority 2005, published 2006).

`CO[C@H]1/C=C/O[C@@]2(C)Oc3c(C)c(O)c4c(O)c(c(/C=N/N5CCN(C)CC5)c(O)c4c3C2=O)NC(=O)/C(C)=C\C=C\[C@H](C)[C@H](O)[C@@H](C)[C@@H](O)[C@@H](C)[C@H](OC(C)=O)[C@@H]1C` [rifampin, rifampicin]: the “increase in HDL-C” value with serum HDL-C (100 mg/Kg once daily 7 days) is reported as “about 25%”.

On to `Clc1cnc(Oc2ccc(Oc3ncc(Cl)cc3Cl)cc2)c(Cl)c1` [TCPOBOP, 1,4-bis[2-(3,5-dichloropyridyloxy)]benzene], for which, in the experiment on serum ApoA1 [1], the “apoA1 relative to controls (methylcellulose)” value is “did not significantly elevate”. Also, the “HDL-C relative to controls (methylcellulose)” value (shortened to “HDL-C relative to controls”) with serum HDL-C is given as “did not significantly elevate”.

Regarding `Cc1ccc(C)c(OCCCC(C)(C)C(=O)O)c1` [gemfibrozil], in the experiment on serum ApoA1 [2], the “apoA1 relative to control” value is recorded as “significantly increase”. In the experiment with serum ApoA1 [2] (gemfibrozil 20 mg/kg once daily 7 days), the “increase in apoA1 relative to control” value is roughly 1.7 fold. In addition, the “dose at peak of the dose-response curve” value in the experiment on serum ApoA1 [1] (apoA1 and HDL-C, declined with higher doses) came to 20 mg/kg. Also, the “apoA1 relative to controls (methylcellulose)” value in the experiment on serum ApoA1 [1] is “significantly elevated”. Also, the “HDL-C relative to controls” value in the experiment with serum HDL-C is recorded as “significantly elevated”.

As to `Fc1ccc(C(c2ccc(F)cc2)(c2ccc(F)cc2)n2ccnc2)cc1` [CDD 3540], in the experiment on CYP3A, the CYP3A activity entry is reported as “increase”. The “apoA1 relative to control” value in the experiment on serum ApoA1 [2] is “neither rifampin nor CDD 3540 elicited significant changes”. For the same molecule, the “increase in apoA1 relative to controls” value in the experiment on serum ApoA1 [1] (100 mg/kg once daily 7 days) is on record as roughly 3.7 fold. The “apoA1 relative to controls (methylcellulose)” value in the experiment on serum ApoA1 [1] is recorded as “significantly elevated”. Moreover, in the experiment on hepatic apoA1 mRNA [3], the apoA1 result is “increase”. Besides, the “increase in hepatic apoA1” value in the experiment on hepatic apoA1 mRNA [4] is reported as roughly 45%. The “HDL-C relative to controls” value with serum HDL-C is on record as “significantly elevated”. In the experiment on HDL-C, the HDL-C result was “increase”.
